In US10477864B2, “Microbiocidal quinoline (thio)carboxamide derivatives” (priority 2016, dated 2019):

What was measured:
[1] = tested on: Botryotinia fuckeliana (Botrytis cinerea); assay: Botryotinia fuckeliana (Botrytis cinerea) / liquid culture (gray mould); format: cell-based; settings: 72 h, read-out: control of Botryotinia fuckeliana
Fusarium culmorum [2] = assay: whole plant or invertebrate; format: in vivo; settings: in Triticum aestivum, read-out: control of Fusarium culmorum
Fusarium culmorum [3] = assay: microbe, parasite or virus in culture; format: cell-based; settings: read-out: control of Fusarium culmorum
[4] = tested on: Glomerella lagenarium (Colletotrichum lagenarium); assay: Glomerella lagenarium (Colletotrichum lagenarium) / liquid culture (anthracnose); format: cell-based; settings: Colletotrichum orbiculare; read-out: control of Glomerella lagenarium

CC(Cc1ccccc1)(CC(F)(F)F)NC(=O)c1cnc2ccc(F)cc2c1 (stereo not drawn) [Compound E-84, N-(1-benzyl-3,3,3-trifluoro-1-methyl-propyl)-6-fluoro-quinoline-3-carboxamide]
≥ 80%: inhibition of growth at 200 ppm [1] | pest or weed control at 200 ppm (Fusarium culmorum [2]) | inhibition of growth at 200 ppm (Fusarium culmorum [3])

CC(C=O)(Cc1ccccc1)NC(=O)c1cnc2c(F)cccc2c1 (stereo not drawn) [Compound E-120, N-(1-benzyl-1-methyl-2-oxo-ethyl)-8-fluoro-quinoline-3-carboxamide]
≥ 80%: inhibition of growth at 200 ppm (Fusarium culmorum [3])

C[C@](Cc1ccccc1)(CC(F)(F)F)NC(=O)c1cnc2c(Cl)cccc2c1 [Compound F-35, N-[(1S)-1-benzyl-3,3,3-trifluoro-1-methyl-propyl]-8-chloro-quinoline-3-carboxamide]
≥ 80%: inhibition of growth at 200 ppm [1] | pest or weed control at 200 ppm (Fusarium culmorum [2]) | inhibition of growth at 200 ppm [4] | inhibition of growth at 200 ppm (Fusarium culmorum [3])

CCCC(Cc1ccccc1)(NC(=O)c1cnc2c(F)cccc2c1)C(F)(F)F (stereo not drawn) [Compound E-91, N-[1-benzyl-1-(trifluoromethyl)butyl]-8-fluoro-quinoline-3-carboxamide]
≥ 80%: inhibition of growth at 200 ppm [1] | pest or weed control at 200 ppm (Fusarium culmorum [2]) | inhibition of growth at 200 ppm [4] | inhibition of growth at 200 ppm (Fusarium culmorum [3])

Cc1cccc2cc(C(=O)N[C@](C)(Cc3ccccc3)CC(F)(F)F)cnc12 [Compound F-28, N-[(1R)-1-benzyl-3,3,3-trifluoro-1-methyl-propyl]-8-methyl-quinoline-3-carboxamide]
≥ 80%: inhibition of growth at 200 ppm [1] | pest or weed control at 200 ppm (Fusarium culmorum [2]) | inhibition of growth at 200 ppm [4] | inhibition of growth at 200 ppm (Fusarium culmorum [3])

Cc1ccc2ncc(C(=O)NC(C)(Cc3ccccc3)CC(F)(F)F)cc2c1 (stereo not drawn) [Compound E-77, N-(1-benzyl-3,3,3-trifluoro-1-methyl-propyl)-6-methyl-quinoline-3-carboxamide]
≥ 80%: inhibition of growth at 200 ppm [1] | pest or weed control at 200 ppm (Fusarium culmorum [2]) | inhibition of growth at 200 ppm (Fusarium culmorum [3])

CC(C)C[C@@](C)(Cc1ccccc1)NC(=O)c1cnc2cc(F)ccc2c1 [Compound F-14, N-[(1S)-1-benzyl-1,3-dimethyl-butyl]-7-fluoro-quinoline-3-carboxamide]
≥ 80%: inhibition of growth at 200 ppm [1] | pest or weed control at 200 ppm (Fusarium culmorum [2]) | inhibition of growth at 200 ppm [4] | inhibition of growth at 200 ppm (Fusarium culmorum [3])

CC(C)(Cc1ccccc1)NC(=O)c1cnc2c(F)cccc2c1 [Compound E-11, N-(1,1-dimethyl-2-phenyl-ethyl)-8-fluoro-quinoline-3-carboxamide]
≥ 80%: inhibition of growth at 200 ppm [1] | pest or weed control at 200 ppm (Fusarium culmorum [2]) | inhibition of growth at 200 ppm (Fusarium culmorum [3])

CC(C)CC(C)(Cc1ccccc1)NC(=O)c1cnc2cccc(F)c2c1 (stereo not drawn) [Compound E-74, N-(1-benzyl-1,3-dimethyl-butyl)-5-fluoro-quinoline-3-carboxamide]
≥ 80%: inhibition of growth at 200 ppm [1] | pest or weed control at 200 ppm (Fusarium culmorum [2]) | inhibition of growth at 200 ppm (Fusarium culmorum [3])

CC(C)CC(C)(Cc1ccccc1)NC(=O)c1cnc2ccc(F)cc2c1 (stereo not drawn) [Compound E-73, N-(1-benzyl-1,3-dimethyl-butyl)-6-fluoro-quinoline-3-carboxamide]
≥ 80%: inhibition of growth at 200 ppm [1] | inhibition of growth at 200 ppm (Fusarium culmorum [3])

Cc1ccc2cc(C(=O)NC(C)(Cc3ccccc3)CC(F)(F)F)cnc2c1 (stereo not drawn) [Compound E-79, N-(1-benzyl-3,3,3-trifluoro-1-methyl-propyl)-7-methyl-quinoline-3-carboxamide]
≥ 80%: inhibition of growth at 200 ppm [1] | pest or weed control at 200 ppm (Fusarium culmorum [2]) | inhibition of growth at 200 ppm [4] | inhibition of growth at 200 ppm (Fusarium culmorum [3])

Cc1ccc2cc(C(=O)NC(C)(Cc3ccccc3)CC(C)C)cnc2c1 (stereo not drawn) [Compound E-72, N-(1-benzyl-1,3-dimethyl-butyl)-7-methyl-quinoline-3-carboxamide]
≥ 80%: inhibition of growth at 200 ppm [1] | pest or weed control at 200 ppm (Fusarium culmorum [2]) | inhibition of growth at 200 ppm (Fusarium culmorum [3])

C=C(C)CC(C)(Cc1ccccc1)NC(=O)c1cc2cccc(F)c2nc1C (stereo not drawn) [Compound E-124, N-(1-benzyl-1,3-dimethyl-but-3-enyl)-8-fluoro-2-methyl-quinoline-3-carboxamide]
≥ 80%: inhibition of growth at 200 ppm [1] | inhibition of growth at 200 ppm (Fusarium culmorum [3])

C[C@@](Cc1ccccc1)(CC(F)(F)F)NC(=O)c1cnc2c(Cl)cccc2c1 [Compound F-36, N-[(1R)-1-benzyl-3,3,3-trifluoro-1-methyl-propyl]-8-chloro-quinoline-3-carboxamide]
≥ 80%: inhibition of growth at 200 ppm [1] | pest or weed control at 200 ppm (Fusarium culmorum [2]) | inhibition of growth at 200 ppm [4] | inhibition of growth at 200 ppm (Fusarium culmorum [3])

COc1cccc2ncc(C(=O)NC(C)(Cc3ccccc3)CC(C)C)cc12 (stereo not drawn) [Compound E-75, N-(1-benzyl-1,3-dimethyl-butyl)-5-methoxy-quinoline-3-carboxamide]
≥ 80%: inhibition of growth at 200 ppm [1] | pest or weed control at 200 ppm (Fusarium culmorum [2]) | inhibition of growth at 200 ppm (Fusarium culmorum [3])

CC(C)CC(C)(Cc1ccccc1)NC(=O)c1cnc2ccc(O)cc2c1 (stereo not drawn) [Compound E-76, N-(1-benzyl-1,3-dimethyl-butyl)-6-hydroxy-quinoline-3-carboxamide]
≥ 80%: inhibition of growth at 200 ppm [1] | pest or weed control at 200 ppm (Fusarium culmorum [2]) | inhibition of growth at 200 ppm (Fusarium culmorum [3])

CC(CCO)(Cc1ccccc1)NC(=O)c1cnc2c(F)cccc2c1 (stereo not drawn) [Compound E-119, N-(1-benzyl-3-hydroxy-1-methyl-propyl)-8-fluoro-quinoline-3-carboxamide]
≥ 80%: inhibition of growth at 200 ppm [1] | inhibition of growth at 200 ppm (Fusarium culmorum [3])

C[C@@](Cc1ccccc1)(CC(F)(F)F)NC(=O)c1cnc2c(F)cccc2c1 [Compound F-12, N-[(1R)-1-benzyl-3,3,3-trifluoro-1-methyl-propyl]-8-fluoro-quinoline-3-carboxamide]
≥ 80%: inhibition of growth at 200 ppm [1] | pest or weed control at 200 ppm (Fusarium culmorum [2]) | inhibition of growth at 200 ppm [4] | inhibition of growth at 200 ppm (Fusarium culmorum [3])

C[C@@](Cc1ccccc1)(CC(F)F)NC(=O)c1cnc2c(F)cccc2c1 [Compound F-31, N-[(1R)-1-benzyl-3,3-difluoro-1-methyl-propyl]-8-fluoro-quinoline-3-carboxamide]
≥ 80%: inhibition of growth at 200 ppm [1] | pest or weed control at 200 ppm (Fusarium culmorum [2]) | inhibition of growth at 200 ppm [4] | inhibition of growth at 200 ppm (Fusarium culmorum [3])

CC(Cc1ccccc1)(CC(F)(F)F)NC(=O)c1cnc2ccc(Cl)cc2c1 (stereo not drawn) [Compound E-78, N-(1-benzyl-3,3,3-trifluoro-1-methyl-propyl)-6-chloro-quinoline-3-carboxamide]
≥ 80%: inhibition of growth at 200 ppm (Fusarium culmorum [3])

CC(C)CC(C)(Cc1ccccc1)NC(=O)c1cc2cccc(F)c2nc1F (stereo not drawn) [Compound E-125, N-(1-benzyl-1,3-dimethyl-butyl)-2,8-difluoro-quinoline-3-carboxamide]
≥ 80%: inhibition of growth at 200 ppm [1] | pest or weed control at 200 ppm (Fusarium culmorum [2]) | inhibition of growth at 200 ppm [4] | inhibition of growth at 200 ppm (Fusarium culmorum [3])

Cc1nc2c(F)cccc2cc1C(=O)N[C@](C)(Cc1ccccc1)CC(F)(F)F [Compound F-34, N-[(1R)-1-benzyl-3,3,3-trifluoro-1-methyl-propyl]-8-fluoro-2-methyl-quinoline-3-carboxamide]
≥ 80%: inhibition of growth at 200 ppm [1] | inhibition of growth at 200 ppm [4] | inhibition of growth at 200 ppm (Fusarium culmorum [3])

CC(Cc1ccccc1)(CC(F)(F)F)NC(=O)c1cnc2cccc(F)c2c1 (stereo not drawn) [Compound E-80, N-(1-benzyl-3,3,3-trifluoro-1-methyl-propyl)-5-fluoro-quinoline-3-carboxamide]
≥ 80%: inhibition of growth at 200 ppm [1] | pest or weed control at 200 ppm (Fusarium culmorum [2]) | inhibition of growth at 200 ppm (Fusarium culmorum [3])

CC(Cc1ccccc1)(CC(F)(F)F)NC(=O)c1cnc2c(F)cccc2c1Cl (stereo not drawn) [Compound E-96, N-(1-benzyl-3,3,3-trifluoro-1-methyl-propyl)-4-chloro-8-fluoro-quinoline-3-carboxamide]
≥ 80%: inhibition of growth at 200 ppm [1] | pest or weed control at 200 ppm (Fusarium culmorum [2]) | inhibition of growth at 200 ppm [4] | inhibition of growth at 200 ppm (Fusarium culmorum [3])

Cc1c(C(=O)NC(C)(Cc2ccccc2)CC(C)C)cnc2c(C#N)cccc12 (stereo not drawn) [Compound E-109, N-(1-benzyl-1,3-dimethyl-butyl)-8-cyano-4-methyl-quinoline-3-carboxamide]
≥ 80%: inhibition of growth at 200 ppm [1] | pest or weed control at 200 ppm (Fusarium culmorum [2]) | inhibition of growth at 200 ppm (Fusarium culmorum [3])

Cc1nc2c(F)cccc2cc1C(=O)NC(C)(Cc1ccccc1)CC(F)(F)F (stereo not drawn) [Compound E-89, N-(1-benzyl-3,3,3-trifluoro-1-methyl-propyl)-8-fluoro-2-methyl-quinoline-3-carboxamide]
≥ 80%: inhibition of growth at 200 ppm [1] | pest or weed control at 200 ppm (Fusarium culmorum [2]) | inhibition of growth at 200 ppm [4] | inhibition of growth at 200 ppm (Fusarium culmorum [3])

Cc1ccc2ncc(C(=O)NC(C)(Cc3ccccc3)CC(C)C)cc2c1 (stereo not drawn) [Compound E-71, N-(1-benzyl-1,3-dimethyl-butyl)-6-methyl-quinoline-3-carboxamide]
≥ 80%: inhibition of growth at 200 ppm [1] | pest or weed control at 200 ppm (Fusarium culmorum [2]) | inhibition of growth at 200 ppm (Fusarium culmorum [3])

CC(C)CC(C)(Cc1ccccc1)NC(=O)c1cc2ccccc2[n+]([O-])c1 (stereo not drawn) [Compound E-41, N-(1-benzyl-1,3-dimethyl-butyl)-1-oxido-quinolin-1-ium-3-carboxamide]
≥ 80%: inhibition of growth at 200 ppm [1] | inhibition of growth at 200 ppm (Fusarium culmorum [3])

CC(C)C[C@@](C)(Cc1ccccc1)NC(=O)c1cnc2c(F)c(F)ccc2c1 [Compound F-22, N-[(1S)-1-benzyl-1,3-dimethyl-butyl]-7,8-difluoro-quinoline-3-carboxamide]
≥ 80%: inhibition of growth at 200 ppm [1] | inhibition of growth at 200 ppm [4] | inhibition of growth at 200 ppm (Fusarium culmorum [3])

COc1cccc2ncc(C(=O)NC(C)(Cc3ccccc3)CC(F)(F)F)cc12 (stereo not drawn) [Compound E-81, N-(1-benzyl-3,3,3-trifluoro-1-methyl-propyl)-5-methoxy-quinoline-3-carboxamide]
≥ 80%: inhibition of growth at 200 ppm [1] | pest or weed control at 200 ppm (Fusarium culmorum [2]) | inhibition of growth at 200 ppm (Fusarium culmorum [3])

CC(Cc1ccccc1)(CC(F)(F)F)NC(=O)c1cnc2ccc(O)cc2c1 (stereo not drawn) [Compound E-82, N-(1-benzyl-3,3,3-trifluoro-1-methyl-propyl)-6-hydroxy-quinoline-3-carboxamide]
≥ 80%: inhibition of growth at 200 ppm [1] | pest or weed control at 200 ppm (Fusarium culmorum [2]) | inhibition of growth at 200 ppm (Fusarium culmorum [3])
